# Source: patent publication US20210308286A1 (The Johns Hopkins University, priority 2018, published 2021)
# Read-outs that look alike come from different tables or passages of the source. Non-standard residues stand in square brackets, D forms with d. Residues, ends and D or L forms follow the SMILES beside them. ξ: configuration not given here. *: point of attachment. X1 = C=Cc1c(C)c2cc3nc(c4c5[nH]c(cc6nc(cc1[nH]2)C(C)=C6CC)c(C)c5C(=O)C4)[C@@H](CCC(=O)*)[C@H]3C; X2 = O=C(O)CC[C@H](NC(=O)N[C@@H](CCCCNC(=O)CCCCCCC(=O)*)C(=O)O)C(=O)O; ξE = NC(CCC(=O)O)C(=O)O; ξD = NC(CC(=O)O)C(=O)O; ξK = NCCCCC(N)C(=O)O; ξV = CC(C)C(N)C(=O)O; ξS = NC(CO)C(=O)O
# Experiments:
# [1] = system: PSMA+ PC3 PIP tumor; assay: In vivo PSMA inhibition with excess […], ex vivo tumor fluorescence; set-up: species or system athymic male nude mice; settings: 15 nmol LC-Pyro intravenous, 24 hours post-injection
# [2] = biological target: T1, PSMA (Homo sapiens, UniProt Q04609); assay: biochemical
# T1 construct: The amount of glutamate released from NAAG hydrolysis by the LNCaP lysates was determined; endogenous in cells; host or cells: LNCaP cell lysate
# Target sequence in this assay (Q04609 whole entry, looked up): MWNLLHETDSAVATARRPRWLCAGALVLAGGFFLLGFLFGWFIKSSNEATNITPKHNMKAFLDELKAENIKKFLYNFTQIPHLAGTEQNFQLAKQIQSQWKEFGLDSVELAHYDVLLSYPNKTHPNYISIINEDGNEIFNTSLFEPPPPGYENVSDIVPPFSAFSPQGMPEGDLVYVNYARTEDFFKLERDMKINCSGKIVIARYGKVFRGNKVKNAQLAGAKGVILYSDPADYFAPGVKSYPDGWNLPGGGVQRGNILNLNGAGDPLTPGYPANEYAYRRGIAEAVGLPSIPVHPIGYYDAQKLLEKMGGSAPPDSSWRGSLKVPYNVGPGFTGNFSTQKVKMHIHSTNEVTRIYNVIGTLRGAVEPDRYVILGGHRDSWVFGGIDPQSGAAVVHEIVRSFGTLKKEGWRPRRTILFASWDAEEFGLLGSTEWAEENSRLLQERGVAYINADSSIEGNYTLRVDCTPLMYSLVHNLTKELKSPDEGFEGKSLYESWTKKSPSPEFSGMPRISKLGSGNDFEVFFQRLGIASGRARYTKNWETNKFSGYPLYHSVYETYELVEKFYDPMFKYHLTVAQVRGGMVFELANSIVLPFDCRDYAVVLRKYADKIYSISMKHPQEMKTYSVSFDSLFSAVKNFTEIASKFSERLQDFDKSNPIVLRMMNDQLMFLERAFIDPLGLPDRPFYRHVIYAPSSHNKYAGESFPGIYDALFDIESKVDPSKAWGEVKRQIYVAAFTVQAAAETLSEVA
# [3] = system: PSMA+ (PC3-ML-1124) and PSMA− (PC3-ML-1117) metastatic nodules; assay: Fluorescence detection of prostate metastasis; assay type: in vivo, mice; settings: 20 nmol via tail vein, 24 hours post-injection
# [4] = Plasma blood clearance (pharmacokinetics) after intravenous injection; assay type: in vivo, BALB/c mice; settings: for half-life: BALB/c, 20 nmol per animal, 20 nmol intravenous, plasma fluorescence over 48 hours, n=5
# [5] = biological target: T1, PSMA; assay: Fluorescence-based PSMA inhibition assay (NAAG hydrolysis by LNCaP cell lysates, Amplex Red); assay type: biochemical; settings: 4 μM NAAG, Cheng-Prusoff conversion, n=3
# Protocol: Briefly, lysates of LNCaP cells (25 μL in 0.1 M Tris-HCl, pH 8.0) were incubated with the serial dilutions of the test compounds (in 12.5 μL of 0.1 M Tris-HCl, pH 8.0) in the presence of 4 μM N-acetylaspartylglutamate (NAAG) (in 12.5 μL of 0.1 M Tris-HCl, pH 8.0) for 120 minutes. The reaction mixtures were incubated with the working solution (50 μL) of the Amplex Red Glutamic Acid Kit (Molecular Probes Inc., Eugene, Oreg.) for 60 minutes. The amount of glutamate released from NAAG hydrolysis by the LNCaP lysates was determined by measuring the fluorescence generated from the reactions using the Cytation 5 plate reader (BioTek, Winooski, Vt.) with excitation at 545 nm and emission at 590 nm. […] Enzyme inhibitory constants (Ki values) were generated using the Cheng-Prusoff conversion. […] Data analysis was performed using GraphPad Prism software (n=3).
# Target sequence in this assay (Q04609 whole entry): as the sequence (Q04609 whole entry, looked up) above
# [6] = system: PSMA+ PC3 PIP subcutaneous tumor
# [7] = system: PSMA+ PC3 PIP and PSMA− PC3 flu subcutaneous tumors; settings: 20 nmol intravenous; for tumor accumulation, whole-animal in vivo fluorescence imaging: 24 hours post-administration; for ex vivo organ distribution / clearance route: 24 hours, ex vivo fluorescence
# [8] = system: PSMA+ PC3 PIP orthotopic prostate tumor; assay: ^64Cu-LC-Pyro PET/CT and gamma-counting biodistribution, PSMA+ orthotopic model; settings: PSMA+ PC3 PIP orthotopic tumor mice, 24 hours post-injection, mean ± SD, n=4
# Excerpt: Organs of interest, including the tumor, prostate, seminal vesicles, testes, heart, spleen, lungs, liver, kidneys, adrenal, stomach, small intestine, large intestine, skin, fat, muscle, bone and brain were excised, washed in saline, dried with absorbent tissue, weighed, and counted on a gamma-counter Wizard® 1480 well-type automatic gamma counter (PerkinElmer Inc.; Shelton, Conn.). Radioactivity measured in each organ was decay-corrected and expressed as the percentage of the injected dose per gram of tissue (% ID/g).
# [9] = system: PSMA+ PC3 PIP cells; assay type: cell-based; settings: flow cytometry, time-dependent
# [10] = system: low-risk, localized prostate cancer; settings: vascular targeted PDT, cited from earlier work
# [11] = LC-Pyro+Laser group, 24 hours post-PDT
compound,measurement,setting,value
C=Cc1c(C)c2cc3nc(c4c5[nH]c(cc6nc(cc1[nH]2)C(C)=C6CC)c(C)c5C(=O)C4)[C@@H](CCC(=O)NCC(=O)NC(CC(=O)O)C(=O)NC(CCC(=O)O)C(=O)NC(C(=O)NC(CC(=O)O)C(=O)NCC(=O)NC(CO)C(=O)NCC(=O)NC(CCCCNC(=O)CCCCCCC(=O)NCCCC[C@H](NC(=O)N[C@@H](CCC(=O)O)C(=O)O)C(=O)O)C(N)=O)C(C)C)[C@H]3C (some centres unmarked) [LC-Pyro] (X1-G[ξD][ξE][ξV][ξD]G[ξS]G[ξK](X2)-NH2; N-terminus and C-terminus assumed),accumulation in excised PSMA+ PC3 PIP tumors with DCIBzL (PSMA blocker) injected 30 minutes beforehand,[1],less accumulation
same,Ki,[2],88 pM
same,"uptake in metastatic nodules, in situ fluorescence imaging",[3],selective uptake
same,"plasma circulation time, fold longer than SC-Pyro (single lysine linker analog)","[4]; BALB/c mice, intravenous",8.5 fold
same,half-life,"[4]; mouse, in vivo, iv, read-out: t1/2, fast (plasma, two-compartment model) (converted)",0.5 h
same,half-life,"[4]; mouse, in vivo, iv, read-out: t1/2, slow (plasma half-life, two-compartment model) (converted)",10 h
same,Ki inhibitory activity against PSMA,[5],sub-nanomolar
same,therapeutic effect without laser exposure,"[6]; LC-Pyro only, 50 nmol intravenous",No therapeutic effect
same,skin phototoxicity upon daylight exposure,"[6]; LC-Pyro with no laser treatment, 50 nmol intravenous",no sign of skin phototoxicity
same,body weight,[6]; LC-Pyro+Laser group,no decrease in body weight
same,H&E staining of tumor sections,[6]; [11],significant damage of tissue architecture
same,TUNEL staining of tumor sections,[6]; [11],significant cell death
same,tumor regrowth after day 22,"[6]; LC-Pyro+Laser group, n=4",tumor regrowth was observed in two animals
same,residual or recurrent disease 44 days post-PDT,"[6]; LC-Pyro+Laser group, the two remaining animals",no signs of residual or recurrent disease
same,tumor growth,"[6]; LC-Pyro+Laser: 30 nmol intravenous, 671-nm laser 100 J/cm^2 at 6 hours, single dose, n=4",significant tumor growth inhibition
same,"tumor accumulation, whole-animal in vivo fluorescence imaging",[7],selective accumulation to the PSMA+ after 24 hours
same,ex vivo organ distribution / clearance route,[7],liver and kidney clearance
same,"biodistribution, Tumor",[8],9.74 % ID/g
same,selectivity of uptake in PSMA+ PC3 PIP vs PSMA− PC3 flu cells,[9],nonselective cell-penetrating properties
C=Cc1c(C)c2cc3nc(c4c5[nH]c(cc6nc(cc1[nH]2)C(C)=C6CC)c(C)c5C(=O)C4)[C@@H](CCC(=O)N[C@H](CCCCNC(=O)CCCCCCC(=O)NCCCC[C@H](NC(=O)N[C@@H](CCC(=O)O)C(=O)O)C(=O)O)C(N)=O)[C@@H]3C [SC-Pyro],"t1/2, slow (plasma half-life, two-compartment model)","[4]; mouse, in vivo, iv",1.17 h
same,Ki inhibitory activity against PSMA,[5],sub-nanomolar
same,"tumor accumulation, whole-animal in vivo fluorescence imaging",[7],negligible accumulation within both the PSMA− and PSMA+ tumors
same,ex vivo organ distribution / clearance route,[7],metabolized and collected in the gallbladder
C=Cc1c(C)c2cc3nc(c4c5[nH]c(cc6nc(cc1[nH]2)C(C)=C6CC)c(C)c5C(=O)C4)[C@@H](CCC(=O)N[C@H](CCCCNC(=O)CCCCCCC(=O)NCCCC[C@H](NC(=O)N[C@@H](CCC(=O)O)C(=O)O)C(=O)O)C(N)=O)[C@H]3C [SC-Pyro],Ki,[2],200 pM
CC[C@H]1c2cc3[n-]c(c(CC(=O)OC)c4nc(cc5[n-]c(cc(n2)[C@@H]1C)c(C(C)=O)c5C)[C@@H](C)[C@@H]4CCC(=O)[O-])c(C(=O)NCCS(=O)(=O)[O-])c3C.[H+].[H+].[Pd+2] [padeliporfin],patients with disease-free biopsy,[10]; 28% with standard-of-care,49%
same,percentage of patients with progressive disease,[10]; 58% with standard-of-care,28%
